From US12240859B2, “Turbinmicin compounds, compositions and uses thereof” (Wisconsin Alumni Research Foundation, priority 2019, dated 2025)
≈ marks a conversion by molar mass, not a printed value. Where two headings read alike, the source gives them in different places.

What was measured:
C. glabrata = test: In vitro MIC susceptibility testing, broth microdilution; assay type: cell-based, Candida glabrata
Protocol: (§1) In vitro MIC susceptibility testing. […]. Amphotericin B was used as a positive control and the MICs range were 0.25-1.5 μg/mL. Six untreated media controls were included on each plate. The plates were incubated at 33° C. for 72 h. The MICs were determined as the lowest concentration that inhibited visible growth. The MICs were read at 24, 48, and 72 hours, respectively. […]

Apophysomyces elegans = test: In vitro MIC susceptibility testing; assay type: cell-based
Protocol: as §1

Aspergillus fumigatus = test: In vitro MIC susceptibility testing; assay type: cell-based
Protocol: as §1

[1] = system: Cynninghamella bertholletiae; test: In vitro MIC susceptibility testing; assay type: cell-based
Protocol: as §1

Lichteimia corymbiferea = test: In vitro MIC susceptibility testing; assay type: cell-based
Protocol: as §1

Mucor circinelloides = test: In vitro MIC susceptibility testing; assay type: cell-based
Protocol: as §1

Rhizopus delemar = test: In vitro MIC susceptibility testing; assay type: cell-based
Protocol: as §1

Rhizopus oryzae = test: In vitro MIC susceptibility testing; assay type: cell-based; conditions: Rhizopus arrhizus
Protocol: as §1

Scedosporium spp. = test: In vitro MIC susceptibility testing; assay type: cell-based
Protocol: as §1

C. albicans = test: Time kill experiments; assay type: cell-based, Candida albicans; conditions: C. albicans (K-1, FIG. 6B), 1x to 16x MIC, 0-48 h
Protocol: FIGS. 6A-C show time-kill curves for turbinmicin against (6A) C. auris B11211, (6B) C. albicans K-1, and (6C) C. glabrata 4720.
Time Kill Experiments. Fresh Candida colonies from an overnight growth were added to normal saline and the turbidity was adjusted to a 0.6 transmittance at 530 nm to provide a standard suspension (1*10^6 CFU/mL). This suspension was diluted with RPMI 1640 medium buffered with MOPS and a standard compound stock solution to achieve a starting inoculum of approximately 10^5 CFU/ml. Each 20 mL culture (RPMI 1640 medium buffered with MOPS) was incubated at 35° C. with constant shaking, and 0.1 mL samples were withdrawn for the determination of fungal counts at 0, 2, 4, 6, 8, 24 and 48 h. Colony counts were determined by viable counts on sabouraud agar plate (SDA) after incubation for 48 h. Growth control for each organism were prepared without antifungal and run in parallel.

A. fumigatus = test: Time kill experiments; assay type: cell-based, Aspergillus fumigatus; conditions: A. fumigatus as printed in b90 (FIG. 6C), 0-48 h
C. auris B11211 = test: Neutropenic murine disseminated candidiasis model, C. auris B11211; assay type: in vivo, Candida auris; conditions: mice
Excerpt: Animals. Six-week-old ICR Swiss specific-pathogen-free female mice weighing 23 to 27 g were used for all studies. Animals were maintained in accordance with the American Association for Accreditation of Laboratory Care criteria. Animal studies were approved by the University of Wisconsin Animal Research Committee.
C. auris B11211 and C. albicans K1 Infection model. A neutropenic, murine, disseminated candidiasis model was used for the treatment studies. […]
C auris B11211 was subcultured on SDA 24 h prior to infection. […] Fungal counts of the inoculum determined by viable counts of C. auris on SDA were 6.25±0.03 log10 CFU ml^−1, respectively. […] Results were expressed as the mean number of CFU per kidney for three mice. […]
Disseminated infection with C. auris B11211 infection was produced by injection of 0.1 ml of the inoculum via the lateral tail vein 2 h prior to the start of antifungal therapy. […] The results are expressed as the mean and standard deviation of the log10 CFU/kidney from three mice. […]
Results. A multi-dose experiment with C. auris B11211 infection murine model was evaluated, and four doses (1, 2, 4, and 8 mg/kg) of turbinmicin were administered to mice every six hours over a 24 h period; turbinmicin was administered by intraperitoneal route.

A. fumigatus F11628 = test: Neutropenic murine nasal aspiration pneumonia model of invasive pulmonary aspergillosis; assay type: in vivo, Aspergillus fumigatus

SMILES: C/C=C/C=C/C=C/C(=O)OC1C=CCC2C(=O)c3c(O)c4c5c(c3OC12)OCOC5CC1C(=O)c2cc(C)[nH]c(=O)c2C(=O)C41O (centres unmarked) [Turbinmicin, turbinmicin]
- MIC (C. glabrata; Nakaseomyces glabratus): 0.5 µg/mL (≈ 0.797 µM)
- MIC (C. glabrata; strain 513): 0.5 µg/mL (≈ 0.797 µM)
- MIC (C. glabrata; strain 729, Fks2_HS1_S663P): 0.5 µg/mL (≈ 0.797 µM)
- MIC (C. glabrata; strain 5592): 0.5 µg/mL (≈ 0.797 µM)
- MIC (C. glabrata; strain 14378, Fks1_HS1_S629P): 0.5 µg/mL (≈ 0.797 µM)
- MIC (Apophysomyces elegans): 4 µg/mL (≈ 6.37 µM)
- MIC (Aspergillus fumigatus; strain 293, read-out: MIC): 0.125 µg/mL (≈ 0.199 µM)
- MIC (Aspergillus fumigatus; strain F11628 (11628), Cyp51 G138C, triazole resistant): 0.03 µg/mL (≈ 0.0478 µM)
- MIC (Aspergillus fumigatus; strain F14403, Cyp51 G54R): 0.25 µg/mL (≈ 0.398 µM)
- MIC (Aspergillus fumigatus; strain F14532, Cyp51 M220T): 0.25 µg/mL (≈ 0.398 µM)
- MIC (Aspergillus fumigatus; strain F16216, Cyp51 L98H + TR): 0.25 µg/mL
- MIC [1]: > 8 µg/mL
- MIC (Lichteimia corymbiferea): 4 µg/mL (≈ 6.37 µM)
- MIC (Mucor circinelloides): 4 µg/mL (≈ 6.37 µM)
- MIC (Rhizopus delemar): 4 µg/mL (≈ 6.37 µM)
- MIC (Rhizopus oryzae): > 8 µg/mL
- MIC (Scedosporium spp.): 0.5 µg/mL (≈ 0.797 µM)
- time-kill activity (C. albicans): Fungacidal activity was observed
- time-kill activity (A. fumigatus): Fungacidal activity was observed
- CFU/kidney reduction (C. auris B11211; multi-dose 1, 2, 4 and 8 mg/kg intraperitoneal every six hours over 24 h, at 24 h, dose-dependent): > 3 log 10 CFU/kidney
- antifungal effect, single dose (C. auris B11211; single intraperitoneal dose 8, 16, 32, 64 mg/kg, 6 h, data not shown): failed to reveal a significant antifungal effect
- survival (A. fumigatus F11628; mice, 0.25, 0.5 and 1 mg/kg IP every 6 hrs for 4 days, all three dosages): 100%
- CE/mL reduction of lung homogenate measured by qPCR (A. fumigatus F11628; mice, dose of 1 mg/kg IP every 6 hrs for 4 days): 1 log 10 CE/mL
